What was measured:
Wistar rats = assay: Passive Cutanious Anaphylaxis (PCA); assay type: in vivo, rat; details: oral, female Wistar rats, evans blue read at 620 nm
Procedure: I. Passive Cutanious Anaphylaxis (PCA)
Hair on the back of each of the three 5 weeks old female Wistar rats were cut by clippers. Prepared mouse antiserum was diluted with 50×physiological saline solution. 0.05 ml of diluted antiserum solution was subcutaneously injected into two hair-cut sites on the back of each rat. After 3 hours, the test compounds were orally administered to the rats. After 30 minutes, 0.1% ovalbumin as antigen was mixed with 1% evans blue in the equivalent volumes and 0.1 ml of the mixture was injected in a peripheral vein of the tail of each rat. After 30 minutes, rats were sacrificed by bleeding from the abdominal arteries and their skins were stripped from the subcutaneous injection spots in uniform sizes. After immersing the stripped skins in 1.0 ml of 1.2 N KOH in 9 ml test tube and stopping the tube, a shaking incubation was performed at 37° C. for 24 hours. Then, after the mixtured solution of acetone and 0.6 N phosphoric acid (13:5) was added, the test tube was shaking-incubated for 1 hour and centrifuged to 1,700 g at 20° C. for 10 minutes. After insoluble lipids were removed from the top of the supernatant, the supernatant was measured at 620 nm. IgE was quantified by diluting the mixtured acetone-phosphoric aicd solution and drawing evans blue assay lines. The results are shown in Table I below, in which the amounts of IgE were expressed as μg/ml.

Phosphodiesterase II = target: T1, Phosphodiesterase II (Homo sapiens, UniProt O00408); assay: Inhibition of phosphodiesterase activity ([3H]cAMP hydrolysis); assay type: biochemical; details: PDE partially purified from human U937 cells, 1.0 μM cAMP, 30° C., 20 minutes; test concentration not given
T1 construct: partially purified from human U937 cells; endogenous in cells; host or cells: U937 cells (partially purified)
T1 sequence (O00408 whole entry): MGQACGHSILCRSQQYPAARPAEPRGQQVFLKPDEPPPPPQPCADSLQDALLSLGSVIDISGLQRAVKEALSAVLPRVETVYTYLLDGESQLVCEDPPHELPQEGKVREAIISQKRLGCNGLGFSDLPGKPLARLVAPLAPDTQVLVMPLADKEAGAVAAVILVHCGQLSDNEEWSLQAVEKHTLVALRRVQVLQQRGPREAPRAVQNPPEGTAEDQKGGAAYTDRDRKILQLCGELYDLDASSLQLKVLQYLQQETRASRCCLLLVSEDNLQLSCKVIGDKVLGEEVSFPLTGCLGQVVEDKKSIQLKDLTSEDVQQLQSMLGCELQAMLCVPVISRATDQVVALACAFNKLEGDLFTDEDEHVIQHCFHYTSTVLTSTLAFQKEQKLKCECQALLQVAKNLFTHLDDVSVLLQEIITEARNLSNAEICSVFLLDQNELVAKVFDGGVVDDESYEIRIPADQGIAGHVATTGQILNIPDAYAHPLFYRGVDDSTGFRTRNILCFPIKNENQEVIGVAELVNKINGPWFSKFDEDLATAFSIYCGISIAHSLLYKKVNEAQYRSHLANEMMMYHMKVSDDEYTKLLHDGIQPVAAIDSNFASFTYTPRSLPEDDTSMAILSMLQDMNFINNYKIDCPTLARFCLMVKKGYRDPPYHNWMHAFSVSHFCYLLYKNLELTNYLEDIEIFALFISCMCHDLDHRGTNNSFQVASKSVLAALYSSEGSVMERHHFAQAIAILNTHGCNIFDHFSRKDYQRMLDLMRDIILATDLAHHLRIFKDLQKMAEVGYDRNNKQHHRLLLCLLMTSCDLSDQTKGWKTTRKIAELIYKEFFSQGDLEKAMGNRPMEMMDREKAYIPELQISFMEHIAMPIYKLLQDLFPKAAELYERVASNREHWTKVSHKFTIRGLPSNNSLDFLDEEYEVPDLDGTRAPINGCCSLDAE
Procedure: (§1) II. Inhibition of Phosphodiesterase IV Activity
(§2) Phosphodiesterase I, II, III, IV or V partially purified from human U937 cells, test compound of Example 1, 2 or 3 and 1.0 μM cAMP including μM [^3 H] cAMP were incubated at 30° C. for 20 minutes. The PDE reaction to convert cAMP into AMP was completed by boiling the reaction solution for 2 minutes. AMP was converted into adenosine by adding snake venom nucleotidase and incubating the reaction solution for 10 minutes. While unhydrolyzed cAMPs were bonded to AG1-X2 resin, the aqueous remaining [^3 H] adenosine was quantified by scintillation counting. The results are shown in Table II below, in which the values indicate inhibition(%) of each PDE by each test compound.

Phosphodiesterase III = assay: as above; assay type: biochemical; details: PDE partially purified from human U937 cells, 1.0 μM cAMP, 30° C., 20 minutes; test concentration not given
Procedure: as §1, §2

Phosphodiesterase IV = assay: as above; assay type: biochemical; details: PDE partially purified from human U937 cells, 1.0 μM cAMP, 30° C., 20 minutes; test concentration not given
Procedure: as §1, §2

Phosphodiesterase I = assay: as above; assay type: biochemical; details: PDE partially purified from human U937 cells, 1.0 μM cAMP, 30° C., 20 minutes; test concentration not given
Procedure: as §1, §2

Phosphodiesterase V = target: T2, Phosphodiesterase V (Homo sapiens, UniProt O76074); assay: as above; assay type: biochemical; details: PDE partially purified from human U937 cells, 1.0 μM cAMP, 30° C., 20 minutes; test concentration not given
T2 construct: printed source human U937 cells (possibly human platelets in practice)
Procedure: as §1, §2

| SMILES | amounts of IgE (Wistar rats; dose 0.1 mg/rat) [µg/mL] | amounts of IgE (Wistar rats; dose 2.0 mg/rat) [µg/mL] | inhibition(%) of Phosphodiesterase Type II (Phosphodiesterase II) [%] | inhibition(%) of Phosphodiesterase Type III (Phosphodiesterase III) [%] | inhibition(%) of Phosphodiesterase Type IV (Phosphodiesterase IV) [%] | inhibition(%) of Phosphodiesterase Type I (Phosphodiesterase I) [%] | inhibition(%) of Phosphodiesterase Type V (Phosphodiesterase V) [%] |
| --- | --- | --- | --- | --- | --- | --- | --- |
| COc1ccc(C(=O)Nc2n[nH]cc2C(N)=O)cc1OC1CCCC1 [Example 1, 3-(3-cyclopentyloxy-4-methoxyphenylcarboxylamido)-1H-4-pyrazolecarboxylamide] | 4.578 | 4.099 | 65 | 68 | 90 | 58 | 89 |
| COc1ccc(C(=O)Nc2nc[nH]c2C(N)=O)cc1OC1CCCC1 [Example 2] | 3.381 | 2.694 | 60 | 67 | 80 | 68 | 61 |
| COc1ccc(C(=O)Nc2ccsc2C(N)=O)cc1OC1CCCC1 [Example 3] | – | – | 68 | 74 | 90 | 67 | 69 |
